Reference: patent US20110045101A1, “FUNGICIDAL SUBSTITUTED AZOLES” (E.I. Du Pont De Nemours and Company, priority 2009, published 2011)
Marks after values point to notes of the source that are not given here.

Key:
Assay type in all cases: in vivo
Settings in all cases: 100 = 100% disease control, 0 = no control
Botrytis cinerea = test: Test C: tomato Botrytis on tomato seedlings, sprayed the day before inoculation, visual disease rating
Method in brief: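 Compounds were dissolved in acetone (3% of final volume), then suspended in 50/50 acetone/purified water containing 250 ppm polyhydric alcohol ester surfactant. Suspensions were sprayed to run-off on tomato seedlings at 200 ppm, equivalent to 500 g/ha, or at 40 ppm where marked.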

[1] = system: Erysiphe graminis f. sp. tritici; test: Test J: wheat powdery mildew on wheat seedlings, sprayed the day before inoculation, visual disease rating
Method in brief: (§1)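 Compounds were dissolved in acetone (3% of final volume), then suspended in 50/50 acetone/purified water with 250 ppm Trem® 014 surfactant. Suspensions at 200 ppm (some at 40 ppm) were sprayed to run-off, 200 ppm being equivalent to 500 g/ha.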

Septoria nodorum = test: Test F: wheat glume blotch on wheat seedlings, sprayed the day before inoculation, visual disease rating
Method in brief: as §1

Septoria tritici = test: Test G: wheat leaf blotch on wheat seedlings, sprayed the day before inoculation, visual disease rating
Method in brief: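 Wheat seedlings were sprayed with compound suspensions, 200 ppm unless starred (40 ppm). After next-day spore inoculation, plants spent 48 h saturated at 24° C, then 19 days at 20° C, when disease was rated visually.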

[2] = system: Puccinia recondita f. sp. tritici; test: Test I: wheat leaf rust on wheat seedlings, sprayed the day before inoculation, visual disease rating
Method in brief: as §1

Alternaria solani = test: Test D: tomato early blight, sprayed the day before inoculation, visual disease rating
Method in brief: as §1

SMILES | Test C disease control rating (Botrytis cinerea; 200 ppm) | Test J disease control rating ([1]; 200 ppm) | Test F disease control rating (Septoria nodorum; 200 ppm) | Test G disease control rating (Septoria tritici; 200 ppm) | Test I disease control rating ([2]; 200 ppm) | Test D disease control rating (Alternaria solani; 200 ppm) | Test C disease control rating (Botrytis cinerea; 40 ppm (marked *)) | Test J disease control rating ([1]; 40 ppm (marked *)) | Test F disease control rating (Septoria nodorum; 40 ppm (marked *)) | Test G disease control rating (Septoria tritici; 40 ppm (marked *)) | Test I disease control rating ([2]; 40 ppm (marked *)) | Test D disease control rating (Alternaria solani; 40 ppm (marked *))
Cc1nc(Cl)c(-c2c(F)cccc2F)n1-c1cnc2ccccc2c1 [compound 199] | 92% | 95% | 100% | 96% | 98% | 100% |  |  |  |  |  | 
Fc1cccc(F)c1-n1cnc(Br)c1-c1ccc(Cl)cc1 [compound 200] | 0% | 21% | 0% | 45% | 0% | 0% |  |  |  |  |  | 
N#Cc1cc(F)c(-c2c(Cl)nc(Br)n2-c2ccc(Cl)cc2)c(F)c1 [compound 201] | 99% | 100% | 100% | 98% | 96% | 100% |  |  |  |  |  | 
Fc1ccc(-c2c(Cl)nc(Br)n2-c2ccc(Cl)c(F)c2)c(Cl)c1 [compound 202] | 91% | 100% | 98% | 97% | 98% | 61% |  |  |  |  |  | 
Fc1cc(-n2c(Br)nc(Cl)c2-c2c(F)cccc2Cl)ccc1Cl [compound 203] | 87% | 99% | 87% | 97% | 100% | 98% |  |  |  |  |  | 
Fc1cc(F)c(-n2c(Cl)nc(Cl)c2-c2ccc(Cl)cc2)c(F)c1 [compound 204] |  |  |  |  |  |  | 90* % | 26* % | 0* % | 90* % | 18* % | 91* %
Fc1cc(F)c(-n2cnc(Br)c2-c2ccc(Cl)cc2)c(F)c1 [compound 212] |  |  |  |  |  |  | 40* % | 0* % | 0* % | 0* % | 0* % | 20* %
COc1ccc(Cn2c(Cl)nc(Cl)c2-c2c(F)cccc2F)cc1Cl [compound 213] | 63% | 42% | 0% | 96% | 100% | 0% |  |  |  |  |  | 
COc1cc(F)c(-n2c(Cl)nc(Br)c2-c2ccc(Cl)cc2)c(F)c1 [compound 214] |  |  |  |  |  |  | 100* % | 98* % | 97* % | 94* % | 97* % | 99* %
CSc1ccc(F)c(-c2c(Cl)ncn2-c2ccc(Cl)cc2)c1F [compound 215] | 98% | 91% | 0% | 96% | 68% | 85% |  |  |  |  |  | 
Cc1nc(Br)n(-c2c(F)cccc2F)c1-c1ccc(Cl)cc1 [compound 216] |  |  |  |  |  |  | 99* % | 94* % | 0* % | 96* % | 93* % | 100* %
C=Cc1nc(C)n(-c2ccc(Cl)cc2)c1-c1c(F)cccc1F [compound 217] |  |  |  |  |  |  | 33* % | 0* % | 0* % | 13* % | 0* % | 57* %
Fc1cc(F)c(-n2c(Br)nc(Br)c2-c2ccc(Cl)cc2)c(F)c1 [compound 218] |  |  |  |  |  |  | 99* % | 73* % | 0* % | 91* % | 80* % | 99* %
Fc1cc(-n2c(Br)nc(Cl)c2-c2c(F)ccc(F)c2Cl)ccc1Cl [compound 219] | 98% | 99% | 51% | 96% | 99% | 97% |  |  |  |  |  | 
Fc1cc(-n2c(Cl)nc(Cl)c2-c2c(F)ccc(F)c2Cl)ccc1Cl [compound 220] | 98% | 100% | 0% | 97% | 99% | 99% |  |  |  |  |  | 
Fc1cccc(F)c1-c1c(Cl)nc(Br)n1-c1cccc(Cl)c1 [compound 221] | 99% | 98% | 0% | 95% | 97% | 99% |  |  |  |  |  | 
Fc1cccc(F)c1-c1c(Cl)nc(Cl)n1-c1cccc(Cl)c1 [compound 222] | 99% | 98% | 0% | 99% | 97% | 99% |  |  |  |  |  | 
Fc1cc(-n2c(Br)nc(Cl)c2-c2c(F)cccc2F)ccc1Cl [compound 223] | 99% | 100% | 60% | 98% | 99% | 100% |  |  |  |  |  | 
Cc1ccc(-n2c(Br)nc(Cl)c2-c2c(F)ccc(F)c2F)cc1C [compound 224] | 93% | 98% | 0% | 90% | 80% | 51% |  |  |  |  |  | 
Fc1cc(-n2c(Cl)nc(Cl)c2-c2c(F)cccc2F)ccc1Cl [compound 225] | 96% | 100% | 0% | 98% | 99% | 100% |  |  |  |  |  | 
Cc1ccc(-n2c(Cl)nc(Cl)c2-c2c(F)ccc(F)c2F)cc1C [compound 226] | 76% | 95% | 0% | 88% | 0% | 67% |  |  |  |  |  | 
Cc1ccc(-n2c(Cl)nc(Cl)c2-c2c(F)cccc2Cl)cc1 [compound 227] | 98% | 99% | 0% | 94% | 99% | 96% |  |  |  |  |  | 
Fc1ccc(-n2c(Cl)nc(Cl)c2-c2c(F)cccc2Cl)cc1 [compound 228] | 96% | 99% | 0% | 98% | 94% | 99% |  |  |  |  |  | 
